± gives the uncertainty stated by the source.
Assay: xn = mol fraction of the nth substance listed

CCCC[N+]1(C)CCCC1.N#C[N-]C#N + O
100 kPa
Settings | viscosity [mPa·s]
298.15 K, x2 = 0.8348 | 8 ± 1.3
318.15 K, x2 = 0.5802 | 9 ± 1.4
323.15 K, x2 = 0.6452 | 7 ± 1.1
333.15 K, x2 = 0.5238 | 7 ± 1.1
338.15 K, x2 = 0.371 | 7.8 ± 1.3
338.15 K, x2 = 0.3756 | 7.8 ± 1.3

O + CCCCCCCCCCCCCCn1cc[n+](C)c1.[Br-] + CC[N+](CC)(CC)CC.[Br-]
101 kPa, frequency 0.001 MHz, x2 = 0, x3 = 0
Settings | electrical conductivity [S/m]
298.15 K | 0.00046 ± 7e-05
308.15 K | 0.00115 ± 7e-05
318.15 K | 0.00157 ± 8e-05

O + CCCC[n+]1ccn(C)c1.[Br-]
101 kPa, x2 = 0
Settings | electrical conductivity [S/m]
288.15 K | 0.000101 ± 1.1e-06
298.15 K | 0.00015 ± 1.6e-06
308.15 K | 0.000216 ± 2.3e-06

O=C1CCCCCN1 + CCCC[N+](CCCC)(CCCC)CCCC.[Cl-]
101 kPa, x1 = 0.5
Settings | electrical conductivity [S/m]
313.15 K | 0.2162 ± 0.0004
315.65 K | 0.257 ± 0.0004
328.15 K | 0.5612 ± 0.0005

NCC(=O)NCC(=O)O + CCCCCCCCCCCC[N+](C)(C)Cc1ccccc1.[Cl-] + O
101 kPa, x1 = 0.0008948, x2 = 0
Settings | electrical conductivity [S/m]
293.15 K | 0.00137 ± 8.4e-05
298.15 K | 0.00165 ± 0.0001
303.15 K | 0.00198 ± 0.00012
308.15 K | 0.00239 ± 0.00015
313.15 K | 0.00284 ± 0.00017

CC1COC(=O)O1 (stereo unspecified) + CC[n+]1ccn(C)c1.N#C[S-]
101.3 kPa, x2 = 0
Settings | viscosity [mPa·s]
293.15 K | 2.945 ± 0.066
308.15 K | 1.919 ± 0.062
333.15 K | 1.293 ± 0.061

CC1COC(=O)O1 (stereo unspecified) + COCCn1cc[n+](C)c1.N#C[S-]
101 kPa, x2 = 0
Settings | viscosity [mPa·s]
288.15 K | 3.06 ± 0.61
293.15 K | 2.75 ± 0.55
298.15 K | 2.47 ± 0.49
303.15 K | 2.25 ± 0.45
308.15 K | 2.05 ± 0.41
313.15 K | 1.88 ± 0.38
318.15 K | 1.73 ± 0.35
323.15 K | 1.6 ± 0.32
328.15 K | 1.49 ± 0.3
333.15 K | 1.39 ± 0.28
338.15 K | 1.29 ± 0.26
343.15 K | 1.21 ± 0.24

CCCC[n+]1ccn(C)c1.F[B-](F)(F)F + CC(C)=O
Settings | electrical conductivity [S/m] | viscosity [mPa·s]
296.15 K, 101 kPa, x2 = 0 | 0.35 ± 0.04 | –
296.15 K, 101 kPa, x2 = 0.3019 | 2.03 ± 0.2 | –
296.15 K, 101 kPa, x2 = 0.6252 | 2.89 ± 0.29 | –
296.15 K, 101 kPa, x2 = 0.7956 | 3.5 ± 0.35 | –
296.15 K, 101 kPa, x2 = 0.8537 | 3.61 ± 0.36 | –
296.15 K, 101 kPa, x2 = 0.9008 | 3.71 ± 0.37 | –
296.15 K, 101 kPa, x2 = 0.9396 | 2.92 ± 0.29 | –
296.15 K, 101 kPa, x2 = 0.9722 | 1.66 ± 0.17 | –
298.15 K, 101 kPa, x2 = 0 | 0.194 ± 0.023 | 116 ± 40
298.15 K, 101 kPa, x2 = 0.0973 | 0.311 ± 0.037 | 78 ± 14
298.15 K, 101 kPa, x2 = 0.1863 | 0.44 ± 0.053 | 53.3 ± 2.1
298.15 K, 101 kPa, x2 = 0.2878 | 0.623 ± 0.075 | 34.2 ± 3.4
298.15 K, 101 kPa, x2 = 0.3877 | 0.87 ± 0.1 | 21.4 ± 2.2
298.15 K, 101 kPa, x2 = 0.4853 | 1.18 ± 0.14 | 12.9 ± 1.4
298.15 K, 101 kPa, x2 = 0.5858 | 1.61 ± 0.19 | 7.39 ± 0.88
298.15 K, 101 kPa, x2 = 0.6762 | 1.98 ± 0.24 | 4.24 ± 0.56
298.15 K, 101 kPa, x2 = 0.8151 | 2.2 ± 0.26 | 1.61 ± 0.23
303.15 K, 100 kPa, x1 = 0.0999 | – | 0.726 ± 0.009
303.15 K, 100 kPa, x1 = 0.2 | – | 1.48 ± 0.017
303.15 K, 100 kPa, x1 = 0.3002 | – | 2.789 ± 0.032
303.15 K, 100 kPa, x1 = 0.4003 | – | 4.968 ± 0.056
303.15 K, 100 kPa, x1 = 0.4996 | – | 8.387 ± 0.092
303.15 K, 100 kPa, x1 = 0.6008 | – | 14.14 ± 0.15
303.15 K, 100 kPa, x1 = 0.7006 | – | 22.8 ± 0.25
303.15 K, 100 kPa, x1 = 0.7995 | – | 35.07 ± 0.38
303.15 K, 100 kPa, x1 = 0.9 | – | 54.72 ± 0.56
303.15 K, 100 kPa, x1 = 1 | – | 85.4 ± 1.1
313.15 K, 100 kPa, x1 = 0.0999 | – | 0.654 ± 0.008
313.15 K, 100 kPa, x1 = 0.2 | – | 1.3 ± 0.015
313.15 K, 100 kPa, x1 = 0.3002 | – | 2.394 ± 0.027
313.15 K, 100 kPa, x1 = 0.4003 | – | 4.185 ± 0.047
313.15 K, 100 kPa, x1 = 0.4996 | – | 6.706 ± 0.074
313.15 K, 100 kPa, x1 = 0.6008 | – | 10.83 ± 0.12
313.15 K, 100 kPa, x1 = 0.7006 | – | 16.72 ± 0.18
313.15 K, 100 kPa, x1 = 0.7995 | – | 24.44 ± 0.26
313.15 K, 100 kPa, x1 = 0.9 | – | 36.14 ± 0.39
313.15 K, 100 kPa, x1 = 1 | – | 53.84 ± 0.55
323.15 K, 100 kPa, x1 = 0.0999 | – | 0.595 ± 0.007
323.15 K, 100 kPa, x1 = 0.2 | – | 1.171 ± 0.013
323.15 K, 100 kPa, x1 = 0.3002 | – | 2.094 ± 0.024
323.15 K, 100 kPa, x1 = 0.4003 | – | 3.567 ± 0.04
323.15 K, 100 kPa, x1 = 0.4996 | – | 5.516 ± 0.062
323.15 K, 100 kPa, x1 = 0.6008 | – | 8.67 ± 0.095
323.15 K, 100 kPa, x1 = 0.7006 | – | 12.67 ± 0.14
323.15 K, 100 kPa, x1 = 0.7995 | – | 17.99 ± 0.19
323.15 K, 100 kPa, x1 = 0.9 | – | 25.35 ± 0.27
323.15 K, 100 kPa, x1 = 1 | – | 36.27 ± 0.39

Source: the CheMixHub ionic liquid set
